# Results as given in paper PMC12621175, “Scaffold Fusion and SAR Transfer with a Chemical Language Model Generates Novel Liver X Receptor Modulators” (Journal of Medicinal Chemistry, 2025).
# Entries after “also recorded” stand apart in the source; their conditions may differ.
# What was measured:
# SREBP1c = test: qPCR of LXR-regulated mRNA expression in HepG2: SREBP1c; format: cell-based, human; details: HepG2, 24 h
# [1] = system: LXR/retinoid X receptor (RXR) heterodimer; test: full-length LXR assay (LXR-responsive ABCA1 reporter, endogenous LXR) in HEK293T and HepG2 cells; format: cell-based; details: vs 0.1% DMSO
# Text: Intrigued by the initial data on LXR modulation, we further investigated the mode-of-action of designs 1-3. As the Gal4 hybrid reporter gene assay is artificial and overexpresses LXR, we next examined LXR modulation by 1-3 in a full-length LXR assay (Figure a) based on the endogenous expression of the LXR/retinoid X receptor (RXR) heterodimer (Figure S2). Upon activation, LXR binds to response elements within the ATP-binding cassette transporter A1 (ABCA1, an LXR target gene) promoter of the reporter. […] The designs were next checked for antiproliferative effects that may compromise further in vitro characterization. […] Therefore, and due to the weak efficacy of 2, we focused further biological characterization on 1 and 3.
# For the hybrid reporter gene assays, the previously reported Gal4-fusion receptor plasmids pFA-CMV-hRORα-LBD, pFA-CMV-hRORβ-LBD, pFA-CMV-hRORγ-LBD, pFA-CMV-hLXRα-LBD, pFA-CMV-hLXRβ-LBD, pFA-CMV-hFXR-LBD, pFA-CMV-hPXR-LBD, and pFA-CMV-hRXRα-LBD, coding for the hinge region, and LBD of the canonical isoform of the respective nuclear receptor were used. pFR-Luc (Stratagene) was used as the reporter plasmid, and pRL-SV40 (Promega) was used in all assays for the normalization of transfection efficiency and cell growth. pECE-SV40-Gal4-VP16 was a gift from Lea Sistonen (Addgene plasmid #71728). The LXR-responsive reporter ABCA1-pGL3 was used for the full-length reporter gene assay.
# The day before transfection, HEK293T cells were seeded in 96-well plates (4 × 10^4 cells/well). Before transfection, the medium was changed to Opti-MEM without any supplements. […] Luminescence was measured with a Spark 10 M luminometer (Tecan Deutschland GmbH). […] EC50/IC50 values and the standard errors thereof were calculated with the mean fold activation values by OriginPro, Version 2025 (OriginLab Corporation, Northampton, MA, USA), fitting a dose–response curve with a variable Hill slope (Levenberg–Marquardt algorithm). […]
# HEK293T cells = test: resazurin-based proliferation assay, HEK293T; format: cell-based
# Method: HepG2 or HEK293T cells were seeded in 96-well plates (4 × 10^4 cells per well). […] After 4, 14, and 24 h, the medium was aspirated, and the cells were incubated with 100 μM resazurin solution in Opti-MEM (prepared from a 0.15 mg/mL resazurin stock in DPBS) for 60 min. The metabolic activity was assessed by conversion of resazurin to resorufin, which was quantified by measuring absorbance at 570 nm and a reference wavelength of 600 nm. The cell count was calculated from a calibration curve with 0–10^5 cells per well in steps of 2 × 10^4.
# APOE = test: qPCR of LXR-regulated mRNA expression in HepG2: APOE; format: cell-based, human; details: HepG2, 24 h
# LXRβ = molecular target: T1, LXRβ (Homo sapiens, UniProt P55055); test: Gal4-LXRβ hybrid reporter gene assay; format: cell-based
# T1 construct: coding for the hinge region, and LBD of the canonical isoform of the respective nuclear receptor; expressed in transfected cells; host or cells: HEK293T
# T1 sequence (P55055 222-460 limits assumed): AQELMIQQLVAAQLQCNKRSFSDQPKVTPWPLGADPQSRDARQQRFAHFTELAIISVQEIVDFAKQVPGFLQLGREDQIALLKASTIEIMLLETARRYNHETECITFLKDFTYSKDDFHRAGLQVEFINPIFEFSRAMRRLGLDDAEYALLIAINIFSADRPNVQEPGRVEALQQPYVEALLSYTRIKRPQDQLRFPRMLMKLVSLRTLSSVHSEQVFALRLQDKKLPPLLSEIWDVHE
# Method: (§1) The LXR-responsive reporter ABCA1-pGL3 was used for the full-length reporter gene assay.
# (§2) The day before transfection, HEK293T cells were seeded in 96-well plates (4 × 10^4 cells/well). Before transfection, the medium was changed to Opti-MEM without any supplements. Transient transfection was carried out using Lipofectamine LTX reagent (Invitrogen) according to the manufacturer’s protocol with (a) pFR-Luc (Stratagene), pRL-SV40 (Promega), and the corresponding Gal4-fusion nuclear receptor plasmid or (b) the LXR-responsive reporter ABCA1-pGL3 and pRL-SV40 (Promega). […] Each concentration was tested in duplicate, and each experiment was repeated in at least three biologically independent repeats. […] Luminescence was measured with a Spark 10 M luminometer (Tecan Deutschland GmbH). Normalization of transfection efficiency and cell growth was done by division of firefly luciferase data by renilla luciferase data multiplied by 1000, resulting in relative light units (RLU). Fold activation was obtained by dividing the mean RLU of the tested compound at a respective concentration by the mean RLU of the untreated 0.1% DMSO control. […] Separate control experiments to exclude nonspecific reporter gene activation or VP16-mediated effects were performed following the same procedure in the absence of a nuclear receptor expression plasmid (pFR-Luc, pRL-SV40, and pECE-SV40-Gal4-VP16 only).
# LXRα = molecular target: T2, LXRα (Homo sapiens, UniProt Q13133); test: Gal4-LXRα hybrid reporter gene assay; format: cell-based; details: for classification: applies to LXRa and LXRb; for LXR modulation in Gal4 hybrid reporter gene assays (mode of action): both LXR subtypes (LXRα and LXRβ)
# T2 construct: coding for the hinge region, and LBD of the canonical isoform of the respective nuclear receptor; expressed in transfected cells; host or cells: HEK293T
# T2 sequence (Q13133 209-447 limits assumed): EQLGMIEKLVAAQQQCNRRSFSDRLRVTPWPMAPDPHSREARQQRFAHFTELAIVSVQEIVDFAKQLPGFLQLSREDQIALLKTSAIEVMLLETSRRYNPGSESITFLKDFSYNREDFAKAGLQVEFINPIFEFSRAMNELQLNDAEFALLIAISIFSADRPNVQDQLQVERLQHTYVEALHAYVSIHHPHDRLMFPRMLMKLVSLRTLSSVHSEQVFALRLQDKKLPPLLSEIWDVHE
# Method: as §1, §2
"EC50 (LXRβ; classification agonist, read-out: LXRb pEC50/pIC50 (converted)) [nM]","EC50 (LXRα; classification agonist, read-out: LXRa pEC50/pIC50 (converted)) [nM]",SMILES,SREBP1c mRNA expression (SREBP1c; 3 μM),LXR modulation in LXR-responsive ABCA1 reporter gene assay ([1]; 3 μM),antiproliferative effect (HEK293T cells; 10 μM),APOE mRNA expression (APOE; 3 μM),classification (LXRα),LXR modulation in Gal4 hybrid reporter gene assays (mode of action) (LXRα),SREBP1c mRNA expression (SREBP1c; 30 μM),"mrna remaining at 30 µM (SREBP1c; Homo sapiens, 30 μM) [%]",LXR modulation in LXR-responsive ABCA1 reporter gene assay ([1]; 10 μM),antiproliferative effect (HEK293T cells; 30 μM),APOE mRNA expression (APOE; 30 μM),IC50 (LXRβ) [nM],IC50 (LXRα) [nM]
589,562,"CCN(C(=O)c1ccccc1)c1ccc(C(O)(C(F)(F)F)C(F)(F)F)cc1 [Compound 1, N-Ethyl-N-(4-[1,1,1,3,3,3-hexafluoro-2-hydroxypropan-2-yl]phenyl)benzamide]",induced,partial LXR agonists; also recorded: partial LXR agonism,did not inhibit the proliferation,induced,agonist,partial agonists,,,,,,,
,,"CS(=O)(=O)c1cccc(-c2ccc(CN(Cc3cccc(C(F)(F)F)c3Cl)CC(c3ccccc3)c3ccccc3)cc2)c1 [Compound 3, N-(2-Chloro-3-[trifluoromethyl]benzyl)-N-([3′-{methylsulfonyl}-{1,1′-biphenyl}-4-yl]methyl)-2,2-diphenylethan-1-amine]",,,,,antagonist,did not activate LXRs but suppressed LXR activation by the reference agonist T0901317,repressed SREBP1c expression; also recorded: robustly suppressed SREBP1c,10,robustly blocked LXR activation; also recorded: inverse agonist,did not inhibit the proliferation,did not significantly alter the expression; also recorded: only a weak impact,2950,7590
